From the NIST ThermoML archive (doi:10.1021/je050460d)
Numbers after ± are expanded uncertainties.

Experiments:
[1] = refractive index (Na D-line) (dimensionless); details: 101.33 kPa, Liquid, Standard Abbe refractometry
[2] = 101.33 kPa, Liquid; for viscosity: Capillary tube (Ostwald / Ubbelohde) method; for mass density: Vibrating tube method
[3] = xn = mol fraction of the nth substance listed; details: 101 kPa, Liquid, x1 = 1; for viscosity: Capillary tube (Ostwald / Ubbelohde) method; for mass density: Vibrating tube method

Structure (SMILES)	refractive index ([1]; 298.15 K)	refractive index ([1]; 303.15 K)	refractive index ([1]; 308.15 K)	refractive index ([1]; 313.15 K)	refractive index ([1]; 318.15 K)	refractive index ([1]; 323.15 K)	refractive index ([1]; 328.15 K)	refractive index ([1]; 333.15 K)	refractive index ([1]; 338.15 K)	refractive index ([1]; 343.15 K)	viscosity ([2]; 298.15 K)	mass density ([2]; 298.15 K)	mass density ([2]; 303.15 K)	mass density ([2]; 308.15 K)	viscosity ([2]; 313.15 K)	mass density ([2]; 313.15 K)	mass density ([2]; 318.15 K)	mass density ([2]; 323.15 K)	viscosity ([2]; 328.15 K)	mass density ([2]; 328.15 K)	further results
CCCCCCn1cc[n+](C)c1.[Cl-] [1-hexyl-3-methylimidazolium chloride]	1.5172 ± 0.001	1.5158 ± 0.001	1.51437 ± 0.001	1.51294 ± 0.001	1.51151 ± 0.001	1.51009 ± 0.001	1.50868 ± 0.001	1.50727 ± 0.001	1.50586 ± 0.001	1.50445 ± 0.001	18089 ± 2400 mPa·s	1039.67 ± 2.7 kg/m3	1036.81 ± 2.7 kg/m3	1033.96 ± 2.7 kg/m3	3429 ± 330 mPa·s	1031.13 ± 2.7 kg/m3	1028.3 ± 2.7 kg/m3	1025.49 ± 2.7 kg/m3	942.1 ± 65 mPa·s	1022.69 ± 2.7 kg/m3	mass density ([2]; 333.15 K): 1019.89 ± 2.7 kg/m3; mass density ([2]; 338.15 K): 1017.11 ± 2.7 kg/m3; viscosity ([2]; 343.15 K): 339.5 ± 17 mPa·s; mass density ([2]; 343.15 K): 1014.32 ± 2.7 kg/m3
O [water] + CCCCCCn1cc[n+](C)c1.[Cl-]	–	–	–	–	–	–	–	–	–	–	–	–	–	–	–	–	–	–	–	–	viscosity ([3]; 298.15 K): 0.895 ± 0.007 mPa·s; viscosity ([3]; 313.15 K): 0.658 ± 0.006 mPa·s; viscosity ([3]; 328.15 K): 0.519 ± 0.005 mPa·s; mass density ([3]; 328.15 K): 985.68 ± 0.5 kg/m3; viscosity ([3]; 343.15 K): 0.419 ± 0.004 mPa·s; mass density ([3]; 343.15 K): 977.75 ± 0.5 kg/m3
CCCCCCCC[n+]1ccn(C)c1.[Cl-] [1-methyl-3-octylimidazolium chloride]	1.50987 ± 0.001	1.50838 ± 0.001	1.50689 ± 0.001	1.50543 ± 0.001	1.50396 ± 0.001	1.5025 ± 0.001	1.50103 ± 0.001	1.49956 ± 0.001	1.4981 ± 0.001	1.49664 ± 0.001	20883 ± 2800 mPa·s	1008.82 ± 2.7 kg/m3	1005.94 ± 2.6 kg/m3	1003.06 ± 2.6 kg/m3	4066 ± 400 mPa·s	1000.2 ± 2.6 kg/m3	997.37 ± 2.6 kg/m3	994.5 ± 2.6 kg/m3	1091 ± 78 mPa·s	991.67 ± 2.6 kg/m3	mass density ([2]; 333.15 K): 988.85 ± 2.6 kg/m3; mass density ([2]; 338.15 K): 986.04 ± 2.6 kg/m3; viscosity ([2]; 343.15 K): 387.2 ± 20 mPa·s; mass density ([2]; 343.15 K): 983.24 ± 2.6 kg/m3
O [water] + CCCCCCCC[n+]1ccn(C)c1.[Cl-]	–	–	–	–	–	–	–	–	–	–	–	–	–	–	–	–	–	–	–	–	viscosity ([3]; 298.15 K): 0.9 ± 0.01 mPa·s; viscosity ([3]; 313.15 K): 0.66 ± 0.01 mPa·s; viscosity ([3]; 328.15 K): 0.52 ± 0.01 mPa·s; mass density ([3]; 328.15 K): 985.68 ± 0.5 kg/m3; viscosity ([3]; 343.15 K): 0.42 ± 0.01 mPa·s; mass density ([3]; 343.15 K): 977.75 ± 0.5 kg/m3
